Entries after “also recorded” stand apart in the source; their conditions may differ.
What was measured:
NCI-H660 cells [1] = assay: cells; conditions: Homo sapiens, NCI-H660, 144 h, read-out: % cell viability relative to 10 nM HC treatment
NCI-H660 cells [2] = conditions: 6 days
CWRR1-SOX2KO cells = assay: Proliferation assay, Incucyte S3 live imaging of nuclear GFP, CWRR1-SOX2KO cells; assay type: cell-based, human; conditions: 10% CSS supplemented with R-1881, 150 h
[3] = tested on: E2F1, WEE1, CDK1 and p57 in SOX2KO cells; assay: Western blotting in CWRR1-SOX2KO cells; assay type: cell-based, human; conditions: Western blot
Procedure: FIGS. 1A-1D. RNA-seq in Control (Ctl) and -SOX2Ko Cells. Ctl or SOX2^KO cells were cultured in 10% charcoal-stripped media with vehicle (R-1881) or ENZ for 72 hrs, then total RNA was recovered for RNA-seq. […] (FIG. 1B) Top gene set pathways enriched by KEGG using Web Gestalt for unique, differentially expressed genes in SOX2^KO cells following ENZ treatment relative to vehicle. Pathways are ranked by strength of significance (P-value). (FIG. 1C) Normalized counts from RNA-seq of representative cell cycle-related genes (CDK1, E2F1, WEE1, CDKN2A, TGFB1, and CDKN1C) across treatment conditions for Ctl and SOX2^KO cells are graphed. Error bars for normalized count data represent +/−SEM for triplicate samples in each condition. Asterisks represent significant differences with the following adjusted p-values: **1E-03 to 1E-09, ***1.0E-10 to 1.0E-19, ****[…] 1.0E-20. (FIG. 1D) Western blots in Ctl and SOX2^KO cells treated with (3.5 μM R-1881) vehicle or ENZ ([…]) for SOX2 and cell cycle proteins encoded by highlighted genes: WEE1, E2F1, CDK1, and p57, confirm relative expression levels observed by RNA-seq. j-Actin was blotted as a loading control. […]

[4] = tested on: CWRR1-Ctl xenograft tumors; assay: CRPC xenograft model, time to 4x tumor volume; assay type: in vivo, athymic nude mice; conditions: 10 mg/kg ENZ, 50 mg/kg MK-1775, daily for 30 days; for median time to endpoint (4x tumor volume relative to volume at randomization): censored at day 31
Procedure: To strengthen the correlation between in vitro and […] studies thereby enhancing translational relevance, an in vivo experiment using a CRPC xenograft model was performed. Following inoculation with CWRR1-Ctl cells, tumor bearing athymic nude mice with a measured tumor volume of ˜150-200 mm^3 were randomized into 4 treatment arms: Vehicle (N=5), 10 mg/kg ENZ (N=8), 50 mg/kg MK-1775 (N=8), and 10 mg/kg ENZ+50 mg/kg MK-1775 (N=8). Mice were treated daily for a period of 30 days. Endpoint for this study was defined as time to 4× tumor volume relative to volume at randomization, representing a lethal tumor burden. Mice who had not reached endpoint at 30 days of treatment were censored at day 31. […] Median time to endpoint for vehicle-, ENZ- and WEE1i-treated mice was 21, 29.5 and 29.5 days, respectively, compared to ENZ+WEE1i-treated mice, which was not reached, as 75% of mice remained without defined progression at 31 days (FIG. 4D).

CWRR1-Ctl cells [5] = assay: Proliferation assay, Incucyte S3 live imaging of nuclear GFP, SOX2-positive CWRR1-Ctl cells; assay type: cell-based, human; conditions: 10% CSS supplemented with R-1881, 150 h (~6 days)
CWRR1-Ctl cells [6] = assay: Propidium iodide staining, cell cycle status; assay type: cell-based, human; conditions: 10 μM ENZ, 0.8 μM MK-1775, 6 days
Procedure: FIGS. 5A-5C. […] (FIG. 5A) Western blotting in CWRR1-Ctl cells cultured in 10% CSS supplemented with R-1881 and treated with: Vehicle (R; 3.5 μM R-1881), and AR-inhibited conditions ([…] R/10 μM ENZ)+/−0.8 μM MK-1775 (WEE1 inhibition) comparing phosphorylated Histone H3 (indicator of cells in M phase) and cleaved PARP (indicator of apoptosis). 3-Actin was blotted as a loading control. […] (FIG. 5C) β-galactosidase activity in CWRR1-Ctl cells treated with either 10 μM ENZ or 10 μM ENZ in combination with 0.8 μM MK-1775 for 6 days. […] Error bars for propidium iodide staining and β-galactosidase activity data represent +/−SEM of 6 replicates tested in each condition, respectively.
WEE1 plays a central role in negatively regulating mitotic phase entry (i.e. the G2/M checkpoint) through phosphorylation of CDK1 [29]. […] PARP-1 is a known substrate of caspase-mediated apoptotic cell death, and cleaved PARP (c-PARP) is a hallmark of apoptosis.

[7] = tested on: CDK1, pCDK1, pHistone H3 and cleaved PARP in CWRR1-Ctl cells; assay: Western blotting in CWRR1-Ctl cells; assay type: cell-based, human; conditions: Western blot
[8] = tested on: CDK1, pCDK1 and pHistone H3 in NCI-H660 cells; assay: Western blotting in NCI-H660 cells; assay type: cell-based, human; conditions: Western blot

Cn1cc(S(=O)(=O)N2CCC3=Cc4c(cnn4-c4ccc(F)cc4)C[C@]3(C(=O)c3cc(C(F)(F)F)ccn3)C2)cn1 [CORT134, relacorilant]
viability at 1 µM (NCI-H660 cells [1]): 91.8%
cell viability relative to control (NCI-H660 cells [2]): minimal differences

C[C@@H]1C[C@H]2[C@@H]3CCC4=CC(=O)C=C[C@]4(C)[C@@]3(F)[C@@H](O)C[C@]2(C)[C@@]1(O)C(=O)CO [DEX, dexamethasone]
viability at 0.1 µM (NCI-H660 cells [1]): 105%

CNC(=O)c1ccc(N2C(=S)N(c3ccc(C#N)c(C(F)(F)F)c3)C(=O)C2(C)C)cc1F [ENZ, enzalutamide]
proliferative capacity compared to vehicle (CWRR1-SOX2KO cells): significantly lower
E2F1, WEE1 and CDK1 expression levels ([3]; SOX2KO cells upon AR inhibition): notably lower
p57 expression ([3]; SOX2KO cells with AR antagonism): highest expression
time to endpoint relative to vehicle [4]: no significant differences
median time to endpoint (4x tumor volume relative to volume at randomization) [4]: 29.5 days
proliferative capacity relative to vehicle (CWRR1-Ctl cells [5]): no effect; also recorded: little effect
% cells at G2/M cell cycle phase (CWRR1-Ctl cells [6]): 11.95%
phosphorylated Histone H3 (pHistone H3) [7]: low

C=CCn1c(=O)c2cnc(Nc3ccc(N4CCN(C)CC4)cc3)nc2n1-c1cccc(C(C)(C)O)n1 [MK-1775]
pHistone H3 relative to DEX and CORT134 treatment alone [8]: increased
time to endpoint relative to vehicle [4]: no significant differences
median time to endpoint (4x tumor volume relative to volume at randomization) [4]: 29.5 days
proliferative capacity relative to vehicle (CWRR1-Ctl cells [5]): no significant difference
cleaved PARP (c-PARP) [7]: increased
phosphorylated Histone H3 (pHistone H3) [7]: increases appreciably
pCDK1 protein expression ([7]; when WEE1i was present): markedly lower

— patent US20250345334A1, “METHODS OF TREATING PROSTATE CANCER” (The University of Chicago, priority 2024, published 2025)
